# Measurements: ChEMBL document CHEMBL4411288, “Design, synthesis and biological evaluation of novel 7-amino-[1,2,4]triazolo[4,3-f]pteridinone, and 7-aminotetrazolo[1,5-f]pteridinone derivative as potent antitumor agents” (Eur J Med Chem, 2019)
# Activity calls are given as the source filed them. The calls are words filed in the database; no cut-off is given here.
# How the values were obtained:
# A549 [1] = assay: Cytotoxicity against human A549 cells assessed as reduction in cell viability after 72 hrs by MTT assay; assay type: functional, cell-based; settings: A549, 72 h
# MCF7 = assay: cells; settings: Homo sapiens, MCF7, 72 h
# Description: Cytotoxicity against human MCF7 cells assessed as reduction in cell viability after 72 hrs by MTT assay
# MDA-MB-231 = assay: cells; settings: Homo sapiens, MDA-MB-231, 72 h
# Description: Cytotoxicity against human MDA-MB-231 cells assessed as reduction in cell viability after 72 hrs by MTT assay
# HCT-116 = assay: Cytotoxicity against human HCT116 cells assessed as reduction in cell viability after 72 hrs by MTT assay; assay type: functional, cell-based; settings: HCT-116, 72 h
# PC-3 = assay: Cytotoxicity against human PC3 cells assessed as reduction in cell viability after 72 hrs by MTT assay; assay type: functional, cell-based; settings: PC-3, 72 h
# [2] = biological target: Serine/threonine-protein kinase PLK1 (Homo sapiens) (UniProt P53350); assay: Inhibition of recombinant human N-terminal His6-tagged PLK1 expressed in baculovirus infected Sf21 insect cells at 1 uM using FAM-labelled peptide as substrate preincubated for 10 mins followed by substrate addition measured after 1 hr relative to control
# Chain of Serine/threonine-protein kinase PLK1 (Homo sapiens) (P53350 whole entry): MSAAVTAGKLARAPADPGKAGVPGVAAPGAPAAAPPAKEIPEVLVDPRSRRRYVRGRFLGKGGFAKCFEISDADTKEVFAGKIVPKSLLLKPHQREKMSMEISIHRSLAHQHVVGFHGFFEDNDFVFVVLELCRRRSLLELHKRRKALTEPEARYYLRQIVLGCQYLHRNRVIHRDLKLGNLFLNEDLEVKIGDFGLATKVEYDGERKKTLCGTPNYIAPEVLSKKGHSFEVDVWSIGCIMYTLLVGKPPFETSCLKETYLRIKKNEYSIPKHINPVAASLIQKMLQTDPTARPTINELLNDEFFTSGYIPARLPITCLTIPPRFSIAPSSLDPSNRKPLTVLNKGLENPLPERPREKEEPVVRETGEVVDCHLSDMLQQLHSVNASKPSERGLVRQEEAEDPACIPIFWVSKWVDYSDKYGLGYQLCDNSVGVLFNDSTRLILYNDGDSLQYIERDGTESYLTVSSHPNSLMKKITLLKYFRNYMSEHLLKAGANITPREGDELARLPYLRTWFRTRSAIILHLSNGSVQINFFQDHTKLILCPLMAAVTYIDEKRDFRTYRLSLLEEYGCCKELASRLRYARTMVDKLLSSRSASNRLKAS
# A549 [3] = assay: Induction of apoptosis in human A549 cells assessed as late apoptotic cells at 1 uM after 24 hrs by acridine orange/ethidium bromide staining-based fluorescence microscopic method; assay type: functional, cell-based
# A549 [4] = assay: Induction of apoptosis in human A549 cells assessed as late apoptotic cells at 5 uM after 24 hrs by acridine orange/ethidium bromide staining-based fluorescence microscopic method; assay type: functional, cell-based
Structure (SMILES),IC50 (MCF7),IC50 (MDA-MB-231),inhibition [2],IC50 (A549 [1]),IC50 (HCT-116),IC50 (PC-3),Activity (A549 [3]),Activity (A549 [4])
O=c1c2nncn2c2cnc(Nc3ccc(N4CCN(CCO)CC4)cc3)nc2n1C1CCCC1,1.91 µM,> 50 µM,–,9.8 µM,9.71 µM,19.1 µM,–,–
O=c1c2nnnn2c2cnc(Nc3ccc(N4CCN(CCO)CC4)cc3)nc2n1C1CCCC1,2.31 µM,> 50 µM,–,3.85 µM,> 50 µM,> 50 µM,–,–
CCN1CCN(c2ccc(Nc3ncc4c(n3)n(C3CCCC3)c(=O)c3nnnn34)cc2)CC1,> 50 µM,> 50 µM,–,3.57 µM,> 50 µM,16.1 µM,–,–
CN1CCN(c2ccc(Nc3ncc4c(n3)n(C3CCCC3)c(=O)c3nncn34)cc2)CC1,> 50 µM,> 50 µM,44.2%,6.96 µM,8 µM,26.5 µM,–,–
CC1CCN(c2ccc(Nc3ncc4c(n3)n(C3CCCC3)c(=O)c3nncn34)cc2)CC1,> 50 µM,4.9 µM,–,3.31 µM,12 µM,> 50 µM,–,–
O=c1c2nncn2c2cnc(Nc3ccc(N4CCOCC4)cc3)nc2n1C1CCCC1,> 50 µM,3.5 µM,–,38.9 µM,8.91 µM,> 50 µM,–,–
CN1CCN(c2ccc(Nc3ncc4c(n3)n(C3CCCC3)c(=O)c3nnnn34)cc2)CC1,> 50 µM,15.8 µM,19.3%,1.25 µM,19.1 µM,3.8 µM,–,–
O=c1c2nncn2c2cnc(Nc3ccc(N4CCSCC4)cc3)nc2n1C1CCCC1,> 50 µM,6.4 µM,–,2.12 µM,12 µM,> 50 µM,–,–
O=c1c2nncn2c2cnc(Nc3ccc(N4CCCC4)cc3)nc2n1C1CCCC1,> 50 µM,> 50 µM,–,5.63 µM,49.3 µM,11.3 µM,–,–
O=c1c2nncn2c2cnc(Nc3ccc(NC4CCCC4)cc3)nc2n1C1CCCC1,> 50 µM,> 50 µM,–,> 50 µM,21.2 µM,> 50 µM,–,–
O=c1c2nnnn2c2cnc(Nc3ccc(N4CCCC4)cc3)nc2n1C1CCCC1,> 50 µM,> 50 µM,–,7.86 µM,> 50 µM,> 50 µM,–,–
CN1CCN(C2CCN(c3ccc(Nc4ncc5c(n4)n(C4CCCC4)c(=O)c4nnnn45)cc3)CC2)CC1,> 50 µM,5.81 µM,–,1.28 µM,7.62 µM,> 50 µM,–,–
CC(=O)c1c(C)c2cnc(Nc3ccc(N4CCNCC4)cn3)nc2n(C2CCCC2)c1=O [PALBOCICLIB],4.09 µM,3.5 µM,–,1.32 µM,8.9 µM,2.2 µM,–,–
O=c1c2nnnn2c2cnc(Nc3ccc(N4CCCCC4)cc3)nc2n1C1CCCC1,> 50 µM,> 50 µM,–,1.16 µM,> 50 µM,> 50 µM,–,–
O=c1c2nncn2c2cnc(Nc3ccc(N4CCCCC4)cc3)nc2n1C1CCCC1,> 50 µM,3.85 µM,–,3.11 µM,20.1 µM,> 50 µM,–,–
CC1CN(c2ccc(Nc3ncc4c(n3)n(C3CCCC3)c(=O)c3nncn34)cc2)CC(C)N1 (configuration not stated),0.41 µM,4.8 µM,72.1%,0.89 µM,4.4 µM,3.26 µM,–,–
CCN1CCN(c2ccc(Nc3ncc4c(n3)n(C3CCCC3)c(=O)c3nncn34)cc2)CC1,0.98 µM,> 50 µM,27.4%,1.07 µM,7.5 µM,3.48 µM,–,–
O=c1c2nncn2c2cnc(Nc3ccc(N4CCN(C5CCCC5)CC4)cc3)nc2n1C1CCCC1,> 50 µM,3.96 µM,–,> 50 µM,22.3 µM,> 50 µM,–,–
O=c1c2nnnn2c2cnc(Nc3ccc(N4CCC(O)CC4)cc3)nc2n1C1CCCC1,> 50 µM,53.5 µM,–,> 50 µM,36.3 µM,> 50 µM,–,–
O=c1c2nnnn2c2cnc(Nc3ccc(N4CCOCC4)cc3)nc2n1C1CCCC1,> 50 µM,48.5 µM,–,4.81 µM,43.2 µM,> 50 µM,–,–
CC1CCN(c2ccc(Nc3ncc4c(n3)n(C3CCCC3)c(=O)c3nnnn34)cc2)CC1,> 50 µM,> 50 µM,–,4.92 µM,> 50 µM,> 50 µM,–,–
CC1CN(c2ccc(Nc3ncc4c(n3)n(C3CCCC3)c(=O)c3nnnn34)cc2)CC(C)N1 (configuration not stated),0.5 µM,1.6 µM,77.9%,0.44 µM,0.6 µM,1 µM,Active,Active
O=c1c2nncn2c2cnc(Nc3ccc(N4CCC(O)CC4)cc3)nc2n1C1CCCC1,> 50 µM,8.1 µM,–,41.7 µM,36.1 µM,> 50 µM,–,–
CC[C@@H]1C(=O)N(C)c2cnc(Nc3ccc(C(=O)N[C@H]4CC[C@H](N5CCN(CC6CC6)CC5)CC4)cc3OC)nc2N1C(C)C [VOLASERTIB],0.09 µM,0.11 µM,97.7%,0.08 µM,0.11 µM,0.09 µM,–,–
CN1CCN(C2CCN(c3ccc(Nc4ncc5c(n4)n(C4CCCC4)c(=O)c4nncn45)cc3)CC2)CC1,> 50 µM,> 50 µM,–,2.95 µM,9.3 µM,13.4 µM,–,–
O=c1c2nnnn2c2cnc(Nc3ccc(N4CCN(C5CCCC5)CC4)cc3)nc2n1C1CCCC1,> 50 µM,> 50 µM,–,> 50 µM,2.12 µM,> 50 µM,–,–
O=c1c2nnnn2c2cnc(Nc3ccc(NC4CCCC4)cc3)nc2n1C1CCCC1,> 50 µM,8.95 µM,–,> 50 µM,43.2 µM,> 50 µM,–,–
O=c1c2nnnn2c2cnc(Nc3ccc(N4CCSCC4)cc3)nc2n1C1CCCC1,> 50 µM,37.4 µM,–,> 50 µM,> 50 µM,> 50 µM,–,–

# Continued, in another order:
IC50 (MCF7),IC50 (MDA-MB-231),inhibition [2],Structure (SMILES),IC50 (A549 [1]),IC50 (HCT-116),IC50 (PC-3),Activity (A549 [3]),Activity (A549 [4])
> 50 µM,> 50 µM,–,Cc1nnc2c(=O)n(C3CCCC3)c3nc(Nc4ccc(N5CCC(O)CC5)cc4)ncc3n12,21.7 µM,18.1 µM,> 50 µM,–,–
2.58 µM,> 50 µM,–,CN(C)c1ccc(Nc2ncc3c(n2)n(C2CCCC2)c(=O)c2nnnn23)cc1,10.1 µM,> 50 µM,> 50 µM,–,–
> 50 µM,> 50 µM,–,Cc1nnc2c(=O)n(C3CCCC3)c3nc(Nc4ccc(N(C)C)cc4)ncc3n12,8.86 µM,29.1 µM,> 50 µM,–,–
> 50 µM,> 50 µM,–,Cc1nnc2c(=O)n(C3CCCC3)c3nc(Nc4ccc(N5CCC(C)CC5)cc4)ncc3n12,> 50 µM,11.2 µM,> 50 µM,–,–
> 50 µM,> 50 µM,–,Cc1nnc2c(=O)n(C3CCCC3)c3nc(Nc4ccc(N5CCCC5)cc4)ncc3n12,> 50 µM,> 50 µM,> 50 µM,–,–
3.21 µM,5.85 µM,–,Cc1nnc2c(=O)n(C3CCCC3)c3nc(Nc4ccc(N5CCC(N6CCN(C)CC6)CC5)cc4)ncc3n12,2.38 µM,12.1 µM,> 50 µM,–,–
0.51 µM,2.25 µM,44.7%,CCN1CCN(c2ccc(Nc3ncc4c(n3)n(C3CCCC3)c(=O)c3nnc(C)n34)cc2)CC1,0.68 µM,9.61 µM,5 µM,–,–
> 50 µM,> 50 µM,–,Cc1nnc2c(=O)n(C3CCCC3)c3nc(Nc4ccc(N5CCOCC5)cc4)ncc3n12,4.29 µM,8.91 µM,> 50 µM,–,–
7.28 µM,> 50 µM,–,CN(C)c1ccc(Nc2ncc3c(n2)n(C2CCCC2)c(=O)c2nncn23)cc1,3.89 µM,19.1 µM,> 50 µM,–,–
0.75 µM,3.35 µM,28.2%,Cc1nnc2c(=O)n(C3CCCC3)c3nc(Nc4ccc(N5CCN(CCO)CC5)cc4)ncc3n12,5.46 µM,7.61 µM,8.44 µM,–,–
> 50 µM,9.12 µM,31.6%,Cc1nnc2c(=O)n(C3CCCC3)c3nc(Nc4ccc(N5CCN(C6CCCC6)CC5)cc4)ncc3n12,11.4 µM,> 50 µM,> 50 µM,–,–
> 50 µM,> 50 µM,–,CCN1CCN(c2ccc(N(C(C)=O)c3ncc4c(n3)n(C3CCCC3)c(=O)c3nnc(C)n34)cc2)CC1,20.2 µM,40.3 µM,> 50 µM,–,–
1.05 µM,0.61 µM,26.1%,Cc1nnc2c(=O)n(C3CCCC3)c3nc(Nc4ccc(N5CCN(C)CC5)cc4)ncc3n12,1.92 µM,72.8 µM,7.61 µM,–,–
> 50 µM,> 50 µM,–,Cc1nnc2c(=O)n(C3CCCC3)c3nc(Nc4ccc(NC5CCCC5)cc4)ncc3n12,9.29 µM,> 50 µM,> 50 µM,–,–
> 50 µM,> 50 µM,–,Cc1nnc2c(=O)n(C3CCCC3)c3nc(Nc4ccc(N5CCSCC5)cc4)ncc3n12,7.19 µM,5.82 µM,> 50 µM,–,–
> 50 µM,6.26 µM,–,Cc1nnc2c(=O)n(C3CCCC3)c3nc(Nc4ccc(N5CCCCC5)cc4)ncc3n12,5.24 µM,19.1 µM,> 50 µM,–,–
